Laboratory results: ChEMBL document CHEMBL3792297, “Studies on phenothiazines: New microtubule-interacting compounds with phenothiazine A-ring as potent antineoplastic agents” (Bioorg Med Chem, 2016)

Columns and labels:
K562 = test: Growth inhibition of human K562 cells after 48 hrs by SRB assay; type: functional; details: K562, 48 h
CCRF-CEM = test: Growth inhibition of human CCRF-CEM cells after 48 hrs by SRB assay; type: functional
NCI-H522 = test: Growth inhibition of human NCI-H522 cells after 48 hrs by SRB assay; type: functional; details: NCI-H522, 48 h
NCI-H23 = test: Growth inhibition of human NCI-H23 cells after 48 hrs by SRB assay; type: functional; details: NCI-H23, 48 h
A549 = test: Growth inhibition of human A549 cells after 48 hrs by SRB assay; type: functional; details: A549, 48 h
Malme-3M = test: Growth inhibition of human MALME-3M cells after 48 hrs by SRB assay; type: functional
[1] = Growth inhibition of human LOXIMVI cells after 48 hrs by SRB assay; type: functional; details: LOX IMVI
[2] = Growth inhibition of human OVCAR4 cells after 48 hrs by SRB assay; type: functional; details: OVCAR-4, 48 h
[3] = Growth inhibition of human SF539 cells after 48 hrs by SRB assay; type: functional; details: SF-539, 48 h
[4] = Growth inhibition of human SKOV3 cells after 48 hrs by SRB assay; type: functional; details: SK-OV-3, 48 h
[5] = Growth inhibition of human SNB75 cells after 48 hrs by SRB assay; type: functional; details: SNB-75, 48 h
[6] = Growth inhibition of human HL-60(TB) cells after 48 hrs by SRB assay; type: functional; details: HL-60, 48 h
[7] = Growth inhibition of human PC3 cells after 48 hrs by SRB assay; type: functional; details: PC-3, 48 h
[8] = Growth inhibition of human NCI-ADR-RES cells after 48 hrs by SRB assay; type: functional
U-251 = test: Growth inhibition of human U251 cells after 48 hrs by SRB assay; type: functional; details: U-251, 48 h
[9] = Growth inhibition of human OVCAR5 cells after 48 hrs by SRB assay; type: functional; details: OVCAR-5, 48 h
[10] = Growth inhibition of human SF268 cells after 48 hrs by SRB assay; type: functional; details: SF-268, 48 h
[11] = Growth inhibition of human DU145 cells after 48 hrs by SRB assay; type: functional; details: DU-145, 48 h
[12] = Growth inhibition of human SW620 cells after 48 hrs by SRB assay; type: functional; details: SW-620, 48 h
[13] = Growth inhibition of human HOP92 cells after 48 hrs by SRB assay; type: functional; details: HOP-92, 48 h
786-0 = test: Growth inhibition of human 786-0 cells after 48 hrs by SRB assay; type: functional; details: 786-0, 48 h
[14] = Growth inhibition of human UACC62 cells after 48 hrs by SRB assay; type: functional; details: UACC-62, 48 h
[15] = Growth inhibition of human RPMI8226 cells after 48 hrs by SRB assay; type: functional; details: RPMI-8226, 48 h
ACHN = test: Growth inhibition of human ACHN cells after 48 hrs by SRB assay; type: functional
SN12C = test: Growth inhibition of human SN12C cells after 48 hrs by SRB assay; type: functional
[16] = Growth inhibition of human UO31 cells after 48 hrs by SRB assay; type: functional; details: UO-31, 48 h
[17] = Growth inhibition of human HCC2998 cells after 48 hrs by SRB assay; type: functional; details: HCC 2998, 48 h
[18] = Inhibition of sheep brain tubulin polymerization by DAPI staining-based fluorimetric method; design: species or system Ovis aries

SMILES | GI50 (K562) | GI50 (CCRF-CEM) | GI50 (NCI-H522) | GI50 (NCI-H23) | GI50 (A549) | GI50 (Malme-3M) | GI50 [2] | GI50 [3] | GI50 [4] | GI50 [5] | GI50 [6] | GI50 [8] | GI50 (U-251) | GI50 [9] | GI50 [10] | GI50 [11] | GI50 [12] | GI50 [13] | GI50 [14] | GI50 [15] | further results
COc1ccc(C(=O)N2c3ccccc3Sc3ccccc32)c(OC)c1 | 381 nM | 394 nM | 343 nM | 776 nM | 785 nM | 416 nM | 3170 nM | 333 nM | 715 nM | 209 nM | 297 nM | 400 nM | 615 nM | 10000 nM | 853 nM | 491 nM | 412 nM | 374 nM | 321 nM | 523 nM | GI50 [1]: 601 nM; GI50 [7]: 430 nM; GI50 (786-0): 480 nM; GI50 (ACHN): 726 nM; GI50 (SN12C): 586 nM; GI50 [16]: 739 nM; GI50 [17]: 1490 nM
COc1ccc(C(=O)N2c3ccccc3Sc3ccccc32)c(F)c1 | 442 nM | 522 nM | 403 nM | 3420 nM | 1190 nM | 16200 nM | 2010 nM | 409 nM | 4130 nM | 288 nM | 325 nM | 517 nM | 615 nM | 3660 nM | 10100 nM | 1400 nM | 458 nM | 238 nM | 382 nM | 921 nM | GI50 [1]: 727 nM; GI50 [7]: 407 nM; GI50 (786-0): 675 nM; IC50 [18]: 22500 nM; GI50 (ACHN): 831 nM; GI50 (SN12C): 1940 nM; GI50 [16]: 3780 nM; GI50 [17]: 2380 nM
COc1ccc(C(=O)N2c3ccccc3Sc3ccccc32)cc1F | 110 nM | 287 nM | 114 nM | 340 nM | 344 nM | 365 nM | 1450 nM | 218 nM | 306 nM | 270 nM | 305 nM | 200 nM | 353 nM | 418 nM | 799 nM | 3610 nM | 282 nM | 1130 nM | 128 nM | 336 nM | GI50 [1]: 672 nM; GI50 (786-0): 609 nM; IC50 [18]: 11800 nM; GI50 (ACHN): 1050 nM; GI50 (SN12C): 525 nM; GI50 [16]: 725 nM; GI50 [17]: 470 nM
O=C(c1ccc2c(c1)Sc1ccccc1N2)c1c[nH]c2ccccc12 | 310 nM | 328 nM | 338 nM | 389 nM | 592 nM | 532 nM | 4110 nM | 258 nM | 380 nM | 249 nM | 398 nM | 317 nM | 413 nM | 565 nM | 798 nM | 679 nM | 293 nM | 585 nM | 356 nM | 428 nM | GI50 [7]: 544 nM; GI50 (786-0): 672 nM; IC50 [18]: 38900 nM; GI50 (ACHN): 671 nM; GI50 (SN12C): 708 nM; GI50 [16]: 510 nM; GI50 [17]: 876 nM
COc1ccc(C(=O)N2c3ccccc3Sc3ccccc32)c(C(F)(F)F)c1 | 349 nM | 88 nM | 320 nM | 578 nM | 515 nM | 25800 nM | 1980 nM | 270 nM | 794 nM | 264 nM | 252 nM | 370 nM | 500 nM | 1610 nM | 3040 nM | 433 nM | 425 nM | 152 nM | 438 nM | 595 nM | GI50 [1]: 516 nM; GI50 [7]: 426 nM; IC50 [18]: 11900 nM; GI50 (ACHN): 1330 nM; GI50 (SN12C): 1300 nM; GI50 [16]: 2620 nM; GI50 [17]: 467 nM
